Earlier results on one compound are cited in patent publication US20210267985A1, “COMPOSITIONS AND METHODS FOR INDUCING ENHANCED BRAIN FUNCTION” (priority 2020, published 2021).

Molecules are shown by their SMILES.

For this series the following is noted: in vivo.

A word on the half-life: it is the time in which the quantity being followed falls by half. For the compound `Cn1c(=O)c2c(ncn2C)n(C)c1=O` [caffeine], the half-life was 4 to 6 h.
